Laboratory results from patent publication US4233403A, “Amylase assay” (E. I. Du Pont de Nemours and Company, priority 1978, dated 1980).
Several values for one entry are separate records, joined by “and”; a condition that tells them apart may be missing. Equal values may be shown once.

Tests used:
α-amylase [1] = assay: amylase assay with nitrophenyl oligosaccharide substrate plus α-glucosidase, rate at 410 nm, standard curve; format: biochemical; settings: for Sensitivity: 4 mg/3 ml G4 pNp, 7.5 IU/3 ml α-glucosidase, pH 6.5, 37° C., 410 nm, from standard curve
Experimental: A sample of α-(4-nitrophenyl) maltotetraoside (G4 pNp) prepared in accordance with Example 1H of U.S. Patent Application Ser. No. 704,975, filed on the same day as this application, was dissolved in 66.7 mM sodium phosphate buffer, pH 6.5, to provide various substrate concentrations ranging from 2 to 8 mg/3 ml. As described in U.S. Ser. No. 704,975, this substrate sample has been purified using a Sephadex® LH-20 Chromatographic Column. α-Glucosidase of various concentrations ranging from 2.5 to 12.5 International Units per three milliliters of solution (IU/3 ml) was then added to the substrate solution and the volume of the solution was brought up to 3.0 ml. The solution was incubated at 37° C. for 1 to 10 minutes.
(§1) After the blank rate was measured at 410 nm, using a Gilford spectrophotometer, the reaction was initiated by adding 0.1 ml of an Elevated Enzyme Control Product sold by the E. I. du Pont de Nemours and Company (1150 Somogyi Units per deciliter (SU/dl) amylase) diluted 1:1 with Du Pont Enzyme Diluent. This level of amylase is approximately six times the upper normal serum level. The total reaction rate was then measured using the Gilford spectrophotometer, and by subtracting the blank rate from the total rate, the net reaction rate was obtained.
Using these optimum values of G4 pNp and α-glucosidase in a reaction solution of 3 ml, the reaction rates for various amylase sample concentrations were measured and a standard curve was generated. From this curve, the sensitivity in mA/min/SU/dl was measured. The standard curve for this sample is given in FIG. 1; the blank rate and sensitivity are given for this and other examples in Table II.
(§2) The G4 pNp so formed was dissolved in 66.7 mM sodium phosphate buffer, pH 6.5, to provide a substrate concentration of 4 mg/3 ml. Then 7.5 IU/3 ml of α-glucosidase was added to the substrate solution and the volume of the solution was brought up to 3.0 ml. The solution was incubated at 37° C. for one to ten minutes.
(§3) After the blank rate was measured, as described in Example 1 above, the reaction was […] by adding 0.1 ml of Du Pont Elevated Enzyme Control Product, diluted 1:1 with Du Pont Enzyme Diluent. The reaction rates for various amylase sample concentrations were measured as discussed in Example 1 above, and a standard curve was generated. From this curve, the sensitivity in mA/min/SU/dl was measured.
as §2, with “A sample of α-(4-nitrophenyl) maltotetraoside, prepared in accordance with Example 1G of U.S. Patent Application Ser. No. 704,975,” for “The G4 pNp so formed”
(§4) After the blank rate was measured in a Gilford spectrophotometer at 410 nm, the reaction was initiated by adding 0.1 ml of the Du Pont Elevated Enzyme Control Product, diluted 1:1 with Du Pont Enzyme Diluent. The reaction rates for the various amylase sample concentrations were measured, using the Gilford spectrophotometer, and a standard curve was generated. From this curve, the sensitivity in mA/min/SU/dl was measured.
A sample of α-(4-nitrophenyl) maltopentaoside (G5 pNp), prepared in accordance with Example 2E of U.S. Patent Application Ser. No. 704,975, was dissolved in 66.7 mM sodium phosphate buffer, pH 6.5, to provide various substrate concentrations ranging from 4.0 to 12.0 mg/3 ml. α-Glucosidase of various activity ranging from 15 to 45 IU/3 ml was then added to the substrate solution and the volume of the solution was brought up to 3.0 ml. The solution was incubated at 37° C. for one to ten minutes.
Initial tests were conducted using 4.0 mg/3 ml G5 pNp and three α-glucosidase concentrations, 7.0, 14.0, and 28.0 IU/3 ml. […]

α-glucosidase = assay: blank rate: release of 4-nitrophenol from the substrate by the maltase without amylase; format: biochemical
Description: When a maltase, such as α-glucosidase is used, a side reaction which gives rise to a blank rate occurs because of the reactivity of the maltase with the substrate. This means that even in the absence of α-amylase, there will be release of the phenol. Since the maximum velocity of product release from maltase decreases with increasing n, the growth of a blank rate is slower as n increases. One would expect, then, that the blank rate for G5 would be less than that for G4. This is verified by experimentation. However, an additional factor is involved in the choice between higher and lower oligosaccharides (i.e., G4 or G5) as the substrate. In all reactions of the substrate with amylase and reactions of maltase with the substrate, the rate increases, as a function of substrate concentration, to an optimum, at which point it levels off. The substrate concentration at which optimization occurs appears to increase with increasing n so that more of the substrate (and the maltase) must be used to optimize (linearize) the standard curve. For expensive chemicals, this is an important consideration.
A sample of α-(4-nitrophenyl) maltotetraoside (G4 pNp) prepared in accordance with Example 1H of U.S. Patent Application Ser. No. 704,975, filed on the same day as this application, was dissolved in 66.7 mM sodium phosphate buffer, pH 6.5, to provide various substrate concentrations ranging from 2 to 8 mg/3 ml. […]
as §1, with “This level of amylase is approximately six times the upper normal serum level.” left out, “obtained. […]” for “obtained.”
as §3, with “measured. […]” for “measured.”
as §4, with “measured. […]” for “measured.”

α-amylase [2] = assay: cleavage of α-(4-nitrophenyl)maltoside by α-amylase; format: biochemical, human
Experimental: A. P. Jansen and P. G. A. B. Wydeveld, Nature, 182, 525 (1958) postulate that α-(p-nitrophenyl)maltoside could be a substrate for an amylase assay. […] They reported: (1) Incubation of samples of human urine, saliva, duodenal contents and only incidentally serum with α-(p-nitrophenyl)maltoside at 37° for 16 hours produces 4-nitrophenol, identified spectrophotometrically by mixing the hydrolyzate with 0.02 N sodium hydroxide. (2) The hydrolysis was inhibited by protein precipitants such as 10% trichloroacetic acid and 0.5 N silver nitrate. […] In contrast to the teaching of Jansen et al., the method of this invention produces amylase analyses in one hour or less.

[3] = 4 mg/3 ml G4 pNp, 7.5 IU/3 ml α-glucosidase, 66.7 mM sodium phosphate pH 6.5, 37° C., 410 nm, no amylase

## O=[N+]([O-])c1ccc(O[C@H]2O[C@H](CO)[C@@H](O[C@H]3O[C@H](CO)[C@@H](O[C@H]4O[C@H](CO)[C@@H](O[C@H]5O[C@H](CO)[C@@H](O)[C@H](O)[C@H]5O)[C@H](O)[C@H]4O)[C@H](O)[C@H]3O)[C@H](O)[C@H]2O)cc1 [Example 2, α-(4-nitrophenyl) maltotetraoside]
α-amylase [1]
  Sensitivity: 0.231 mA/min/SU/dl

## O=[N+]([O-])c1ccc(O[C@H]2O[C@H](CO)[C@@H](O[C@H]3O[C@H](CO)[C@@H](O[C@H]4O[C@H](CO)[C@@H](O[C@H]5O[C@H](CO)[C@@H](O)[C@H](O)[C@H]5O)[C@H](O)[C@H]4O)[C@H](O)[C@H]3O)[C@H](O)[C@H]2O)cc1 [Example 1, α-(4-nitrophenyl) maltotetraoside]
α-amylase [1]
  Sensitivity: 0.115 mA/min/SU/dl
α-glucosidase; [3]
  Blank Rate: 5.0 mA/min

## O=[N+]([O-])c1ccc(O[C@H]2O[C@H](CO)[C@@H](O[C@H]3O[C@H](CO)[C@@H](O[C@H]4O[C@H](CO)[C@@H](O[C@H]5O[C@H](CO)[C@@H](O)[C@H](O)[C@H]5O)[C@H](O)[C@H]4O)[C@H](O)[C@H]3O)[C@H](O)[C@H]2O)cc1 [Example 3, α-(4-nitrophenyl) maltotetraoside]
α-amylase [1]
  Sensitivity: 0.110 mA/min/SU/dl
α-amylase [1]; reaction quenched after five minutes with 0.2 M Na2CO3 or 0.002 N NaOH, versus rate assay at pH 6.5
  increase in sensitivity, end point determination after quenching: five to ten fold
α-glucosidase; [3]
  Blank Rate: 10.3-13.3 mA/min and 10.3 to 13.3 mA/min

## O=[N+]([O-])c1ccc(O[C@H]2O[C@H](CO)[C@@H](O[C@H]3O[C@H](CO)[C@@H](O)[C@H](O)[C@H]3O)[C@H](O)[C@H]2O)cc1 [α-(4-Nitrophenyl)maltoside]
α-amylase [2]
  cleavage of this compound by α-amylase: extremely slow

## O=[N+]([O-])c1ccc(O[C@H]2O[C@H](CO)[C@@H](O[C@H]3O[C@H](CO)[C@@H](O[C@H]4O[C@H](CO)[C@@H](O[C@H]5O[C@H](CO)[C@@H](O[C@H]6O[C@H](CO)[C@@H](O)[C@H](O)[C@H]6O)[C@H](O)[C@H]5O)[C@H](O)[C@H]4O)[C@H](O)[C@H]3O)[C@H](O)[C@H]2O)cc1 [G5 pNp, α-(4-nitrophenyl) maltopentaoside]
α-amylase [1]; 4.0 mg/3 ml G5 pNp, α-glucosidase 7.0, 14.0, 28.0 IU/3 ml
  Sensitivity (estimated, non-linear curves): greater than 0.160 mA/min/IU/dl
α-glucosidase; 4.0 mg/3 ml G5 pNp, α-glucosidase 7.0, 14.0 and 28.0 IU/3 ml (each case), pH 6.5, 37° C.
  Blank Rate: 3.0 mA/min

## O=[N+]([O-])c1ccc(O[C@H]2O[C@H](CO)[C@@H](O[C@H]3O[C@H](CO)[C@@H](O[C@H]4O[C@H](CO)[C@@H](O[C@H]5O[C@H](CO)[C@@H](O)[C@H](O)[C@H]5O)[C@H](O)[C@H]4O)[C@H](O)[C@H]3O)[C@H](O)[C@H]2O)cc1 [Example 4, α-(4-nitrophenyl) maltotetraoside]
α-amylase [1]
  Sensitivity: 0.116 mA/min/SU/dl
α-glucosidase; [3]
  Blank Rate: 3.0 mA/min
